Test results from patent publication US9434724B2, “Quinuclidines for modulating alpha 7 activity” (priority 2014, dated 2016).
Where a name gives a salt, the structure may show the parent alone.

Tested on: not listed separately
Experiment: Metabolic stability assay in human liver microsomes (HLM)
Format: in vitro ADME
Conditions: Protocol No. 1; human liver microsomes, 1 μM
Procedure, shortened: (§1)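 In Protocol 1, compound was 1 μM final with NADPH at 37 °C, sampled at 0–45 min. In Protocol 2, 1.5 μM compound with 0.75 mg/mL microsomes (pre-NADPH mix) in 0.1 M potassium phosphate, 1 mM EDTA, pH 7.4 was pre-incubated 10 min, then NADPH started the reaction. Both: LC-MS/MS % remaining versus time 0, half-life from single-phase exponential fit.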
With `Cc1cc2[nH]cc(C(=O)OCC34CCN(CC3)CC4)c2cc1F` [Compound 72, Quinuclidin-4-ylmethyl 5-fluoro-6-methyl-1H-indole-3-carboxylate hydrochloride] the HLM was 3.032 mL/min/kg. With `Cc1cc2[nH]cc(C(=O)OCC34CCN(CC3)CC4)c2cc1C.Cl` [Compound 73, Quinuclidin-4-ylmethyl 5,6-dimethyl-1H-indole-3-carboxylate hydrochloride] the HLM was 2.825 mL/min/kg. In the case of `COc1cc(Cl)cc2[nH]cc(C(=O)OCC34CCN(CC3)CC4)c12.Cl` [Compound 74, quinuclidin-4-ylmethyl 6-chloro-4-methoxy-1H-indole-3-carboxylate hydrochloride], the HLM is reported as 9.6502 mL/min/kg. For `Cl.O=C(OCC12CCN(CC1)CC2)c1c[nH]c2cccc(C(F)(F)F)c12` [Compound 80, Quinuclidin-4-ylmethyl 4-(trifluoromethyl)-1H-indole-3-carboxylate hydrochloride], the HLM was 5.54 mL/min/kg.

Same assay, conditions: human, microsomes, 1 μM
`O=C(OCC12CCN(CC1)CC2)c1c[nH]c2ccc(F)c(Cl)c12` [Compound 62, quinuclidin-4-ylmethyl 4-chloro-5-fluoro-1H-indole-3-carboxylate hydrochloride] showed an HLM of 7.061 mL/min/kg. `Cc1ccc2[nH]cc(C(=O)OCC34CCN(CC3)CC4)c2c1Cl` [Compound 63, quinuclidin-4-ylmethyl 4-chloro-5-methyl-1H-indole-3-carboxylate] showed an HLM of 0.4623 mL/min/kg. `COCCOc1ccc2[nH]cc(C(=O)OCC34CCN(CC3)CC4)c2c1C` [Compound 91, quinuclidin-4-ylmethyl 5-(2-methoxyethoxy)-4-methyl-1H-indole-3-carboxylate] gave an HLM of 6.14 mL/min/kg. `COCCCOc1ccc2[nH]cc(C(=O)OCC34CCN(CC3)CC4)c2c1C` [Compound 92, quinuclidin-4-ylmethyl 5-(3-methoxypropoxy)-4-methyl-1H-indole-3-carboxylate] showed an HLM of 10.37 mL/min/kg.

Target: T1, rat brain nicotinic receptor (α7 NAChR) (Rattus norvegicus (Rat), UniProt Q05941)
T1 sequence (Q05941 23-502 limits assumed): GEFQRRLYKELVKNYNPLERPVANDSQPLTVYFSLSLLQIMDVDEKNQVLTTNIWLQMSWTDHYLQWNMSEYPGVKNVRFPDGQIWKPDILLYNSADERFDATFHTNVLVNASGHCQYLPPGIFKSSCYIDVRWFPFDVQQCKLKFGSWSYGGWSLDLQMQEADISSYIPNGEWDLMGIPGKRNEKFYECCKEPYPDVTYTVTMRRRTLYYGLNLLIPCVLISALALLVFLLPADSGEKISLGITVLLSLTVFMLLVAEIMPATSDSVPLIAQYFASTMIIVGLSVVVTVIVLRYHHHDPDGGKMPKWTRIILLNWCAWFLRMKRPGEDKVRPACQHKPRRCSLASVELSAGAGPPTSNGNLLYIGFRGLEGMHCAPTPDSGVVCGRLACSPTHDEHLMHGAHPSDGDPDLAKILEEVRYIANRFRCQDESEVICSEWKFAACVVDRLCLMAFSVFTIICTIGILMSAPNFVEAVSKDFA
Experiment: not given
Format: binding
Conditions: not given
Work on `O=C(OCC12CCN(CC1)CC2)c1c[nH]c2ccc(F)c(Cl)c12` [Compound 62, quinuclidin-4-ylmethyl 4-chloro-5-fluoro-1H-indole-3-carboxylate hydrochloride] yielded an IC50 of 113 nM and a Ki of 97.6 nM. In the case of `Cc1ccc2[nH]cc(C(=O)OCC34CCN(CC3)CC4)c2c1Cl` [Compound 63, quinuclidin-4-ylmethyl 4-chloro-5-methyl-1H-indole-3-carboxylate], the IC50 is reported as 117 nM and the Ki is reported as 101 nM. `Cc1cc2[nH]cc(C(=O)OCC34CCN(CC3)CC4)c2cc1F` [Compound 72, Quinuclidin-4-ylmethyl 5-fluoro-6-methyl-1H-indole-3-carboxylate hydrochloride] showed an IC50 of 145 nM and a Ki of 125 nM. `Cc1cc2[nH]cc(C(=O)OCC34CCN(CC3)CC4)c2cc1C.Cl` [Compound 73, Quinuclidin-4-ylmethyl 5,6-dimethyl-1H-indole-3-carboxylate hydrochloride] gave an IC50 of 168 nM and a Ki of 145 nM. Work on `COc1cc(Cl)cc2[nH]cc(C(=O)OCC34CCN(CC3)CC4)c12.Cl` [Compound 74, quinuclidin-4-ylmethyl 6-chloro-4-methoxy-1H-indole-3-carboxylate hydrochloride] yielded an IC50 of 181 nM and a Ki of 154 nM. For `Cl.O=C(OCC12CCN(CC1)CC2)c1c[nH]c2cccc(C(F)(F)F)c12` [Compound 80, Quinuclidin-4-ylmethyl 4-(trifluoromethyl)-1H-indole-3-carboxylate hydrochloride], the IC50 was 203 nM and the Ki was 176 nM.

Target: Human α7 NAChR (Homo sapiens (Human), UniProt P36544)
Sequence (P36544 23-502 limits assumed): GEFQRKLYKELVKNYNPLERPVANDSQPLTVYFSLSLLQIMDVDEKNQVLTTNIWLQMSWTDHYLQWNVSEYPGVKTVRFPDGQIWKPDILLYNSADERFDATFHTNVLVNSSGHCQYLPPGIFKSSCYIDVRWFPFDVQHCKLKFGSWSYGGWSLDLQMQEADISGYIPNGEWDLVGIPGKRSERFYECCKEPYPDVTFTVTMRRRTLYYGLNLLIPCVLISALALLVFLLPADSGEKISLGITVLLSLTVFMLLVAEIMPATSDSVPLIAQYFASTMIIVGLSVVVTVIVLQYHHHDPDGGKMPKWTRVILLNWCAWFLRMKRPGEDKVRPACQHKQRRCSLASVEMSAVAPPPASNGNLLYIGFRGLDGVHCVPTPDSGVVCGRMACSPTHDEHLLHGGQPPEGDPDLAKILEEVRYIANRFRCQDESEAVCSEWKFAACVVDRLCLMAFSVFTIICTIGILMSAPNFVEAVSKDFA
Experiment: Electrophysiology screen at 1 μM in Xenopus laevis oocytes
Format: cell-based
Conditions: 1 μM test compound; Imax = maximal current produced by 3 mM ACh
Protocol: Human α7 NAChR plasmid was prepared by GeneWiz from accession NM_000746.5. Human α7 NAChR mRNA was prepared by TriLink at a concentration near 1 μg/μL. The human α7 NAChR mRNA was diluted in sterile water to a working concentration near 10 ng/μL.
Oocytes were obtained from Xenopus laevis frogs and treated with collagenase by Ecocyte Bioscience. Oocytes were injected with the working concentration of α7 NAChR mRNA at a volume of 50 nL for a total of approximately 0.5 ng of α7 NAChR mRNA. Oocytes were maintained in Barth's solution at a temperature of 16° C. The Barth's solution was replaced daily.
Two-electrode voltage clamp recordings were made 3-14 days following mRNA injections at a holding voltage of −70 mV. The NAChR recordings were performed in Ca^++-free Ringer solution (115 mM NaCl, 2 mM KCl, 1.8 mM BaCl2, 5 mM HEPES; pH˜7.4) to limit Ca^++-activated chloride currents.
In all oocyte recordings, drug and wash solutions were applied using a custom-designed microcapillary “linear array” which allows rapid application of agonists. Currents were recorded on a PC-based computer (PClamp, Molecular Devices, Sunnyvale, Calif.). Responses were reported as (I/Imax), where I is the amount of current given by a selected concentration of drug and Imax is the amount of maximal current produced by a 3 mM solution of ACh.
Stocks of test compounds were prepared in DMSO. Test solutions in Ringer were prepared immediately before application of test compound (final DMSO concentration of 0.1%). The final concentration of test compound in the test solution was 1 μM. The test solution was perfused onto the oocyte until a peak current was recorded. There was approximately two minutes of wash time with only the Ringer solution between each application of agonist. Measurement of the test solution was repeated between 2 and 6 times with a two minute wash time between each application of test solution. An average of the currents for each test compound was used to define the response for the test compound.
Work on `O=C(OCC12CCN(CC1)CC2)c1c[nH]c2ccc(F)c(Cl)c12` [Compound 62, quinuclidin-4-ylmethyl 4-chloro-5-fluoro-1H-indole-3-carboxylate hydrochloride] yielded an I/Imax of 0.171. `Cc1ccc2[nH]cc(C(=O)OCC34CCN(CC3)CC4)c2c1Cl` [Compound 63, quinuclidin-4-ylmethyl 4-chloro-5-methyl-1H-indole-3-carboxylate] showed an I/Imax of 0.118. Molecule `Cc1cc2[nH]cc(C(=O)OCC34CCN(CC3)CC4)c2cc1F` [Compound 72, Quinuclidin-4-ylmethyl 5-fluoro-6-methyl-1H-indole-3-carboxylate hydrochloride] has an I/Imax of 0.347. Molecule `Cc1cc2[nH]cc(C(=O)OCC34CCN(CC3)CC4)c2cc1C.Cl` [Compound 73, Quinuclidin-4-ylmethyl 5,6-dimethyl-1H-indole-3-carboxylate hydrochloride] has an I/Imax of 0.367. With `COc1cc(Cl)cc2[nH]cc(C(=O)OCC34CCN(CC3)CC4)c12.Cl` [Compound 74, quinuclidin-4-ylmethyl 6-chloro-4-methoxy-1H-indole-3-carboxylate hydrochloride] the I/Imax was 0.157. For `Cl.O=C(OCC12CCN(CC1)CC2)c1c[nH]c2cccc(C(F)(F)F)c12` [Compound 80, Quinuclidin-4-ylmethyl 4-(trifluoromethyl)-1H-indole-3-carboxylate hydrochloride], the I/Imax was 0.032. For `COCCOc1ccc2[nH]cc(C(=O)OCC34CCN(CC3)CC4)c2c1C` [Compound 91, quinuclidin-4-ylmethyl 5-(2-methoxyethoxy)-4-methyl-1H-indole-3-carboxylate], the I/Imax was 0.205. `COCCCOc1ccc2[nH]cc(C(=O)OCC34CCN(CC3)CC4)c2c1C` [Compound 92, quinuclidin-4-ylmethyl 5-(3-methoxypropoxy)-4-methyl-1H-indole-3-carboxylate] showed an I/Imax of 0.266.

Tested on: not listed separately
Experiment: Human plasma stability
Format: in vitro ADME
Conditions: Protocol No. 2; plasma, 5 μM, 37° C.
Procedure, shortened: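 Protocol 1: 1 μM compound in pH 7.4 sodium-heparin human plasma at 37° C, sampled 0–120 min. Protocol 2: 5 μM in plasma at pH 7.4–8.0, 37° C, duplicates, sampled 0–120 min. Both: LC-MS/MS percent remaining versus t0; half-life from single-phase exponential decay.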
In the case of `Cc1cc2[nH]cc(C(=O)OCC34CCN(CC3)CC4)c2cc1F` [Compound 72, Quinuclidin-4-ylmethyl 5-fluoro-6-methyl-1H-indole-3-carboxylate hydrochloride], the “% Remaining @ 2 h” value is reported as 70.78%. With `Cc1cc2[nH]cc(C(=O)OCC34CCN(CC3)CC4)c2cc1C.Cl` [Compound 73, Quinuclidin-4-ylmethyl 5,6-dimethyl-1H-indole-3-carboxylate hydrochloride] the “% Remaining @ 2 h” value was 41.93%. With `COc1cc(Cl)cc2[nH]cc(C(=O)OCC34CCN(CC3)CC4)c12.Cl` [Compound 74, quinuclidin-4-ylmethyl 6-chloro-4-methoxy-1H-indole-3-carboxylate hydrochloride] the “% Remaining @ 2 h” value was 61.85%. For `Cl.O=C(OCC12CCN(CC1)CC2)c1c[nH]c2cccc(C(F)(F)F)c12` [Compound 80, Quinuclidin-4-ylmethyl 4-(trifluoromethyl)-1H-indole-3-carboxylate hydrochloride], the “% Remaining @ 2 h” value was 81.31%.

Same assay, conditions: human, plasma, 2 h, 5 μM
In the case of `O=C(OCC12CCN(CC1)CC2)c1c[nH]c2ccc(F)c(Cl)c12` [Compound 62, quinuclidin-4-ylmethyl 4-chloro-5-fluoro-1H-indole-3-carboxylate hydrochloride], the “% Remaining @ 2 h” value is reported as 74.02%. For `Cc1ccc2[nH]cc(C(=O)OCC34CCN(CC3)CC4)c2c1Cl` [Compound 63, quinuclidin-4-ylmethyl 4-chloro-5-methyl-1H-indole-3-carboxylate], the “% Remaining @ 2 h” value was 74.47%. With `COCCOc1ccc2[nH]cc(C(=O)OCC34CCN(CC3)CC4)c2c1C` [Compound 91, quinuclidin-4-ylmethyl 5-(2-methoxyethoxy)-4-methyl-1H-indole-3-carboxylate] the “% Remaining @ 2 h” value was 81.12%. With `COCCCOc1ccc2[nH]cc(C(=O)OCC34CCN(CC3)CC4)c2c1C` [Compound 92, quinuclidin-4-ylmethyl 5-(3-methoxypropoxy)-4-methyl-1H-indole-3-carboxylate] the “% Remaining @ 2 h” value was 64.72%.

Tested on: not listed separately
Experiment: Metabolic stability assay in rat liver microsomes (RLM)
Format: in vitro ADME
Conditions: Protocol No. 1; rat liver microsomes, 1 μM
Procedure, shortened: as §1
`Cc1cc2[nH]cc(C(=O)OCC34CCN(CC3)CC4)c2cc1F` [Compound 72, Quinuclidin-4-ylmethyl 5-fluoro-6-methyl-1H-indole-3-carboxylate hydrochloride] showed an RLM of 339.452 mL/min/kg. With `Cc1cc2[nH]cc(C(=O)OCC34CCN(CC3)CC4)c2cc1C.Cl` [Compound 73, Quinuclidin-4-ylmethyl 5,6-dimethyl-1H-indole-3-carboxylate hydrochloride] the RLM was 766.779 mL/min/kg. Work on `COc1cc(Cl)cc2[nH]cc(C(=O)OCC34CCN(CC3)CC4)c12.Cl` [Compound 74, quinuclidin-4-ylmethyl 6-chloro-4-methoxy-1H-indole-3-carboxylate hydrochloride] yielded an RLM of 342.736 mL/min/kg. `Cl.O=C(OCC12CCN(CC1)CC2)c1c[nH]c2cccc(C(F)(F)F)c12` [Compound 80, Quinuclidin-4-ylmethyl 4-(trifluoromethyl)-1H-indole-3-carboxylate hydrochloride] showed an RLM of 1443.16 mL/min/kg.

Same assay, conditions: rat, microsomes, 1 μM
For `O=C(OCC12CCN(CC1)CC2)c1c[nH]c2ccc(F)c(Cl)c12` [Compound 62, quinuclidin-4-ylmethyl 4-chloro-5-fluoro-1H-indole-3-carboxylate hydrochloride], the RLM was 498.991 mL/min/kg. For `Cc1ccc2[nH]cc(C(=O)OCC34CCN(CC3)CC4)c2c1Cl` [Compound 63, quinuclidin-4-ylmethyl 4-chloro-5-methyl-1H-indole-3-carboxylate], the RLM was 1465.43 mL/min/kg. With `COCCOc1ccc2[nH]cc(C(=O)OCC34CCN(CC3)CC4)c2c1C` [Compound 91, quinuclidin-4-ylmethyl 5-(2-methoxyethoxy)-4-methyl-1H-indole-3-carboxylate] the RLM was 235.4 mL/min/kg. With `COCCCOc1ccc2[nH]cc(C(=O)OCC34CCN(CC3)CC4)c2c1C` [Compound 92, quinuclidin-4-ylmethyl 5-(3-methoxypropoxy)-4-methyl-1H-indole-3-carboxylate] the RLM was 149.88 mL/min/kg.

Target: T1, rat brain nicotinic receptor (α7 NAChR)
Experiment: not given
Format: binding
Conditions: Protocol No. 2; [3H] α-Bungarotoxin 0.4 nM, rat brain P2 membrane
For `COCCOc1ccc2[nH]cc(C(=O)OCC34CCN(CC3)CC4)c2c1C` [Compound 91, quinuclidin-4-ylmethyl 5-(2-methoxyethoxy)-4-methyl-1H-indole-3-carboxylate], the IC50 was 221 nM and the Ki was 859 nM. Molecule `COCCCOc1ccc2[nH]cc(C(=O)OCC34CCN(CC3)CC4)c2c1C` [Compound 92, quinuclidin-4-ylmethyl 5-(3-methoxypropoxy)-4-methyl-1H-indole-3-carboxylate] has an IC50 of 76.1 nM and a Ki of 133 nM.
